From ChEMBL document CHEMBL3739396, “5-Aryl-1-imino-1-oxo-[1,2,4]thiadiazines” (ACS Med Chem Lett, 2015)

Molecular target: Beta-secretase 1 (Homo sapiens, UniProt P56817)
Assay: Inhibition of human BACE1 in HEK293 cells expressing APP assessed as decrease in amyloid beta-40 level after 18 to 20 hrs
Format: cell-based

Sequence of Beta-secretase 1 (P56817 whole entry): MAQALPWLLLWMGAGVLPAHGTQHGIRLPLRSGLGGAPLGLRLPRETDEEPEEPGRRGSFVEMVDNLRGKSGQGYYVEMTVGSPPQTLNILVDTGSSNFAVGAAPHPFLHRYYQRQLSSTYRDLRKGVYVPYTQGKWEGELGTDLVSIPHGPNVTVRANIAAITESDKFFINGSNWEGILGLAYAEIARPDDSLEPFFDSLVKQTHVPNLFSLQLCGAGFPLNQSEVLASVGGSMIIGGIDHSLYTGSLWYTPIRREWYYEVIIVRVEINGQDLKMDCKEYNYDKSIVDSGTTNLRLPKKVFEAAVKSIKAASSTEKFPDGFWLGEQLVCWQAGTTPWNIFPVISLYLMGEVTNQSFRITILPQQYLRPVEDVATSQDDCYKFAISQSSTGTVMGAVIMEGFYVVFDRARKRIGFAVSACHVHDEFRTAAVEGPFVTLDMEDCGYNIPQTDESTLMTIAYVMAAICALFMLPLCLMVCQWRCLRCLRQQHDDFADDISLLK

| IC50 [nM] | SMILES |
| --- | --- |
| 9.5 | C[C@@]1(c2cc(-c3cc(-c4ncc(Cl)cn4)no3)ccc2F)C[S@]2(=O)=NCCCCN2C(N)=N1 |
| 9.5 | C[C@@]1(c2cc(-c3cn(-c4ccc(C#N)cn4)nn3)ccc2F)C[S@]2(=O)=NCCCCN2C(N)=N1 |
| 2 | C[C@@]1(c2cc(NC(=O)c3ccc(C#N)cn3)ccc2F)C[S@]2(=O)=NCCCCN2C(N)=N1 |
